From article PMC8129133, “Polymer-free corticosteroid dimer implants for controlled and sustained drug delivery” (Nature Communications, 2021)
Where “and” joins values, the source holds several entries; their conditions need not be identical. Equal entries are not always repeated.

What was measured:
In vitro release = assay type: physicochemical; details: for 23G x 6 mm - Cumulative Dex Release / 30G x 6 mm - Cumulative Dex Release: single samples and AVG; for Dex Release: Fig 5h implants, 1.5 ml FBS; for Cumulative Dex (%) / Cumulative Dex-TEG (%) / Cumulative Dex-TEG-Dex (%): Fig 4d pellet
Procedure: Pellets for release studies. Crystalline drug dimers were weighed on a stainless steel coupon. In the case of blends with a second drug, the dimer and drug were mixed at the desired mass ratio with mortar and pestle prior to weighing. Samples were transferred to a heat press (Carver Laboratory Press). A PTFE mold containing an array of 1 mm diameter holes of 1 mm depth was placed on top of the melt, and pressure was applied for 2 min. Molded pellets were cooled to room temperature and punched out of the mold, yielding a pellet of 1 mm height × 1 mm diameter.
Release studies were carried out using different media, including PBS (pH 7.4, Gibco), 100% FBS (Sigma, F1051), 1% FBS in PBS pH 7.4, and 3.6% BSA (Sigma, A7906) in PBS (pH 7.4, Gibco). […] Samples were incubated in release medium at 37 °C under constant agitation on an orbital shaker at 115 rpm (VWR). At designated timepoints, sampling was performed by complete removal of medium and replenishment with fresh buffer. Sampling timepoints included 24 h and then every 3–4 days thereafter. For PBS release conditions, samples were analyzed directly. For samples with protein (100% FBS, 1% FBS, 3.6% BSA), protein was precipitated by addition of acetonitrile. Samples were vortexed and centrifuged to separate extracted drug from precipitated protein. The supernatant was then analyzed for drug concentration by HPLC.

[1] = rabbit, in vivo
Procedure: Analysis of samples was conducted using a SCIEX API 5000 mass spectrometer (Applied Biosystems/MDS Sciex), Shimadzu LC-20ADXR HPLC pumps, Shimadzu SCL-10A controller, and HTS-PAL autoinjector (CTC Analytics). Chromatography was performed using a Waters X-Bridge C-18 (3.5 µm; 100 × 2.1 mm) column equipped with a Phenomenex KrudKatcher ULTRA HPLC In-Line Filter (Part AF0-8497). The column was held at a temperature of 40 °C, while the autosampler compartment was maintained at 4 °C. Mobile phases consisted of: (A) 95:5 H2O:MeOH with 2 mM Ammonium Acetate (NH4OAc) and (B) 85:10:5 MeOH:H2O:MeCN with 2 mM NH4OAc. A gradient elution profile was employed, following the trend of: (0 min 30% B), (0.50 min 30% B), (2.50 min 65% B), (2.51 min 100% B), (4.50 min 100% B), (4.51 min 30% B), (6.50 min 30% B). Flow was constant at 0.6 mL min^-1 with an injection volume of 10 µL. For MS parameters, the system was operated in positive ion mode with a TurboIonSpray probe monitoring transitions (±0.2 AMU) of m/z 393.2 → 373.2 for Dex and 397.3 → 377.2 for the Dex-d4 deuterated internal standard. Analyst Version 1.4.2 (Applied Biosystems-MDS Sciex) was used for instrument control, data acquisition, and peak integrations, while calculations including peak area ratios, standard curve regressions, sample concentration values, and descriptive statistics were performed with the assistance of the ALIS2004 validated LIMS.
Dex and internal standard (Dex-d4) were extracted from vitreous humor on ice using protein precipitation. Samples were initially centrifuged at approximately 1500 rcf for 5 min to remove any interfering particulates. Stepwise, the protocol for extraction from vitreous humor was to (1) pipette 50 µL of vitreous humor into an extraction tube; (2) add 13 µL H2O and vortex to mix; (3) add 25 µL internal standard spiking solution (100 ng/mL Dex-d4 in a 1:1 solvent of MeOH:H2O); (4) add 25 µL of make-up reagent (1:1 mixture of MeOH:H2O); (5) vortex mix for 5-10 s at a speed setting of 4 or 5; (6) centrifuge at ~60 rcf for 2 min; (7) add 300 µL of 9:1 MeOH:5 mM NH4OAc at pH 7 to precipitate proteins; (8) cap and vortex mix at full speed for 2 min; (9) Centrifuge at approximately 2700 rcf for 5 min; (10) transfer 300 µL of supernatant to a separate tube; (11) vortex the collected supernatant for 30 s at a low to moderate speed; (12) centrifuge at ~1500 rcf for 5 min; (13) store prepared extract at 4 °C until analysis by LC-MS/MS.
Pharmacokinetics. […] Animals were anesthetized with ketamine (up to ~50 mg/kg) and xylazine (up to ~10 mg/kg). Eyes were surgically prepared before intravitreal procedures with 5% betadine and topical anesthetic eye drops (proparacaine hydrochloride, 0.5%). Prior to test article administration, pupils were dilated with topical application of one drop each of 10% phenylephrine and 1% tropicamide on each cornea.
Implants (30 G × 6 mm Dex-TEG-Dex extruded rods, Ozurdex®) were injected (30 G needle for Dex-TEG-Dex, 22 G needle for Ozurdex®) intravitreally into the eyes of New Zealand White rabbits (female, 1.5–2.5 kg) with terminal timepoints of 1 and 2 weeks and 1, 2, 3, 6, 9, 12, and 14 months. Ocular tissues and plasma were collected at each timepoint and analyzed for Dex by LC/MS/MS. Whole globe eyes were collected into centrifuge tubes and remained frozen for a minimum of 24 h before dissection and tissue collection. During dissection, vitreous humor containing any remaining test article was collected frozen into pre-weighed centrifuge tubes and stored at −80 °C until further processing.

C[C@@H]1C[C@H]2[C@@H]3CCC4=CC(=O)C=C[C@]4(C)[C@@]3(F)[C@@H](O)C[C@]2(C)[C@@]1(O)C(=O)COC(=O)OCCOCCOCCOC(=O)OCC(=O)[C@@]1(O)[C@H](C)C[C@H]2[C@@H]3CCC4=CC(=O)C=C[C@]4(C)[C@@]3(F)[C@@H](O)C[C@@]21C [Dex-TEG-Dex]
23G x 6 mm - Cumulative Dex Release, % (In vitro release; Fig 4e, Day 28, AVG): 5.83% | 30G x 6 mm - Cumulative Dex Release, % (In vitro release; Fig 4e, Day 28, AVG): 26.07% | 23G x 6 mm - Cumulative Dex Release (In vitro release; Fig 4e, Day 28): 22513.24 ng and 19328.26 ng and 15619.66 ng and 21703.43 ng and 22527.37 ng and 19996.59 ng | 30G x 6 mm - Cumulative Dex Release (In vitro release; Fig 4e, Day 28): 17080.41 ng and 16856.88 ng and 15635.65 ng and 15175.33 ng and 17376.10 ng | 23G x 6 mm - Cumulative Dex Release (In vitro release; Fig 4e, Day 28, mean): 20281.43 ng | 30G x 6 mm - Cumulative Dex Release (In vitro release; Fig 4e, Day 28, mean): 16424.87 ng | Cumulative Dex Release (In vitro release; Fig 5e extruded rods, 4.4 ml PBS, Day 3, samples and avg): 1097.22 ng and 914.62 ng and 1001.18 ng | Cumulative Dex Release (In vitro release; Fig 5e extruded rods, 4.4 ml PBS, Day 3, samples and avg, mean): 1004.34 ng | Cumulative Dex Release (In vitro release; Fig 5e extruded rods, 4.4 ml PBS, Day 7, samples and avg): 2505.34 ng and 2182.65 ng and 1890.99 ng | Cumulative Dex Release (In vitro release; Fig 5e extruded rods, 4.4 ml PBS, Day 7, samples and avg, mean): 2192.99 ng | Cumulative Dex Release (In vitro release; Fig 5e extruded rods, 4.4 ml PBS, Day 10, samples and avg): 3527.54 ng and 3009.52 ng and 2686.37 ng | Cumulative Dex Release (In vitro release; Fig 5e extruded rods, 4.4 ml PBS, Day 10, samples and avg, mean): 3074.48 ng | Cumulative Dex Release (In vitro release; Fig 5e extruded rods, 4.4 ml PBS, Day 14, samples and avg): 4834.31 ng and 3361.72 ng and 3917.67 ng | Cumulative Dex Release (In vitro release; Fig 5e extruded rods, 4.4 ml PBS, Day 14, samples and avg, mean): 4037.90 ng | Cumulative Dex Release (%) (In vitro release; Fig 5e extruded rods, PBS, Day 3, avg): 5.68% | Cumulative Dex Release (%) (In vitro release; Fig 5e extruded rods, PBS, Day 7, avg): 12.40% | Cumulative Dex Release (%) (In vitro release; Fig 5e extruded rods, PBS, Day 10, avg): 17.39% | Cumulative Dex Release (%) (In vitro release; Fig 5e extruded rods, PBS, Day 14, avg): 22.83% | Cumulative Dex Release (In vitro release; Fig 5g pellet 1x1 mm, 2 ml FBS, Day 1, samples and avg): 7893.42 ng and 9312.84 ng and 6181.88 ng | Cumulative Dex Release (In vitro release; Fig 5g pellet 1x1 mm, 2 ml FBS, Day 1, samples and avg, mean): 7796.05 ng | Cumulative Dex Release (In vitro release; Fig 5g pellet 1x1 mm, 2 ml FBS, Day 4, samples and avg): 30339.61 ng and 45405.22 ng and 23002.55 ng | Cumulative Dex Release (In vitro release; Fig 5g pellet 1x1 mm, 2 ml FBS, Day 4, samples and avg, mean): 32915.79 ng | Cumulative Dex Release (In vitro release; Fig 5g pellet 1x1 mm, 2 ml FBS, Day 7, samples and avg (Dex-TEG-Dex)): 54914.64 ng and 66482.50 ng and 47540.80 ng | Cumulative Dex Release (In vitro release; Fig 5g pellet 1x1 mm, 2 ml FBS, Day 7, samples and avg (Dex-TEG-Dex), mean): 56312.65 ng | Cumulative Dex Release (In vitro release; Fig 5g pellet 1x1 mm, 2 ml FBS, Day 12, samples and avg): 107363.57 ng and 105953.49 ng and 95651.85 ng | Cumulative Dex Release (In vitro release; Fig 5g pellet 1x1 mm, 2 ml FBS, Day 12, samples and avg, mean): 102989.64 ng | Cumulative Dex Release (In vitro release; Fig 5g pellet 1x1 mm, 2 ml FBS, Day 14, samples and avg (Dex-TEG-Dex)): 134750.54 ng and 130454.95 ng and 117349.61 ng | Cumulative Dex Release (In vitro release; Fig 5g pellet 1x1 mm, 2 ml FBS, Day 14, samples and avg (Dex-TEG-Dex), mean): 127518.37 ng | Cumulative Dex Release (%) (In vitro release; Fig 5g pellet, FBS, Day 1, avg): 1.53% | Cumulative Dex Release (%) (In vitro release; Fig 5g pellet, FBS, Day 4, avg): 6.45% | Cumulative Dex Release (%) (In vitro release; Fig 5g pellet, FBS, Day 7, avg (Dex-TEG-Dex)): 11.03% | Cumulative Dex Release (%) (In vitro release; Fig 5g pellet, FBS, Day 12, avg): 20.18% | Cumulative Dex Release (%) (In vitro release; Fig 5g pellet, FBS, Day 14, avg (Dex-TEG-Dex)): 24.99% | Dex Release (In vitro release; Surface Area 0.4 mm2): 4010.80 ng/day and 4214.70 ng/day and 4298.12 ng/day | Dex Release (In vitro release; Surface Area 2.23 mm2): 36784.29 ng/day and 23408.43 ng/day and 28616.37 ng/day | Dex Release (In vitro release; Surface Area 5.3 mm2): 79250.12 ng/day and 77804.43 ng/day and 51184.45 ng/day | Cumulative Dex (%) (In vitro release; 3.6% BSA, Day 1): 0.09% | Cumulative Dex-TEG (%) (In vitro release; 3.6% BSA, Day 1): 0.00388% and 0.000233% and 0.00% and 0.00648% | Cumulative Dex-TEG-Dex (%) (In vitro release; 3.6% BSA, Day 1): 0.27% and 0.25% and 0.32% and 0.24% and 0.26% and 0.273% | Cumulative Dex (%) (In vitro release; 3.6% BSA, Day 3): 0.26% | Cumulative Dex-TEG (%) (In vitro release; 3.6% BSA, Day 3): 0.0221% and 0.0216% and 0.0328% and 0.0218% and 0.0264% and 0.0252% | Cumulative Dex-TEG-Dex (%) (In vitro release; 3.6% BSA, Day 3): 0.51% and 0.48% and 0.61% and 0.44% and 0.4979% | Cumulative Dex-TEG (%) (In vitro release; 3.6% BSA, Day 7): 0.08% and 0.09% and 0.10% and 0.12% | Cumulative Dex-TEG-Dex (%) (In vitro release; 3.6% BSA, Day 7): 0.69% and 0.68% and 0.90% and 0.62% and 0.66% and 0.7212% | Cumulative Dex (%) (In vitro release; 3.6% BSA, Day 10): 1.32% | Cumulative Dex-TEG (%) (In vitro release; 3.6% BSA, Day 10): 0.18% and 0.14% and 0.15% and 0.16% and 0.20% | Cumulative Dex-TEG-Dex (%) (In vitro release; 3.6% BSA, Day 10): 0.89% and 1.18% and 0.82% and 0.87% and 0.9318% | Cumulative Dex (%) (In vitro release; 3.6% BSA, Day 14): 1.97% | Cumulative Dex-TEG (%) (In vitro release; 3.6% BSA, Day 14): 0.28% and 0.21% and 0.25% and 0.22% | Cumulative Dex-TEG-Dex (%) (In vitro release; 3.6% BSA, Day 14): 1.13% and 1.12% and 1.43% and 0.98% and 1.06% and 1.102% | Cumulative Dex-TEG (%) (In vitro release; 100% FBS, Day 1): 0.00% | Cumulative Dex-TEG-Dex (%) (In vitro release; 100% FBS, Day 1): 0.045% and 0.05% and 0.07% | Cumulative Dex-TEG (%) (In vitro release; 100% FBS, Day 3): 0.02% and 0.0246% and 0.00% | Cumulative Dex-TEG-Dex (%) (In vitro release; 100% FBS, Day 3): 0.11% and 0.16% and 0.18% | Cumulative Dex-TEG (%) (In vitro release; 100% FBS, Day 7): 0.06% and 0.0546% and 0.04% | Cumulative Dex-TEG-Dex (%) (In vitro release; 100% FBS, Day 7): 0.22% and 0.28% and 0.36% | Cumulative Dex-TEG (%) (In vitro release; 100% FBS, Day 10): 0.0647% and 0.0546% and 0.06% | Cumulative Dex-TEG-Dex (%) (In vitro release; 100% FBS, Day 10): 0.29% and 0.38% and 0.50% | Cumulative Dex-TEG (%) (In vitro release; 100% FBS, Day 14): 0.08% and 0.10% | Cumulative Dex-TEG-Dex (%) (In vitro release; 100% FBS, Day 14): 0.39% and 0.49% and 0.68% | Cumulative Dex Release (In vitro release; Fig 5d coating, 4 ml PBS, Day 3, samples and avg): 5791.09 ng and 5024.11 ng | Cumulative Dex Release (In vitro release; Fig 5d coating, 4 ml PBS, Day 3, samples and avg, mean): 5535.43 ng | Cumulative Dex Release (In vitro release; Fig 5d coating, 4 ml PBS, Day 7, samples and avg): 17637.28 ng and 18646.47 ng and 15578.55 ng | Cumulative Dex Release (In vitro release; Fig 5d coating, 4 ml PBS, Day 7, samples and avg, mean): 17287.43 ng | Cumulative Dex Release (In vitro release; Fig 5d coating, 4 ml PBS, Day 10, samples and avg): 20320.09 ng and 21014.00 ng and 17829.42 ng | Cumulative Dex Release (In vitro release; Fig 5d coating, 4 ml PBS, Day 10, samples and avg, mean): 19721.17 ng | Cumulative Dex Release (In vitro release; Fig 5d coating, 4 ml PBS, Day 14, samples and avg): 28452.49 ng and 28863.83 ng and 25840.72 ng | Cumulative Dex Release (In vitro release; Fig 5d coating, 4 ml PBS, Day 14, samples and avg, mean): 27719.01 ng | Cumulative Dex Release (%) (In vitro release; Fig 5d coating, PBS, Day 3, avg): 0.71% | Cumulative Dex Release (%) (In vitro release; Fig 5d coating, PBS, Day 7, avg): 2.21% | Cumulative Dex Release (%) (In vitro release; Fig 5d coating, PBS, Day 10, avg): 2.52% | Cumulative Dex Release (%) (In vitro release; Fig 5d coating, PBS, Day 14, avg): 3.55% | time at which free Dex fell below limits of detection ([1]; female, New Zealand White): 14 months | levels of dexamethasone in the aqueous humor [1]: below the limit of quantification for most samples
